# Experimental data reported in publication PMC11596557, “Exiguolysin, a Novel Thermolysin (M4) Peptidase from Exiguobacterium oxidotolerans” (Microorganisms, 2024).
# *: point of attachment. Mca = COc1ccc2c(CC(=O)*)cc(=O)oc2c1
# Test system: exiguolysin
# Experiment: Km determination of the fluorogenic substrate (Michaelis-Menten)
# Type: biochemical, Exiguobacterium oxidotolerans
# Conditions: 25 mM Tris, 2.5 mM CaCl2, pH 7.0; substrate 0-200 µM; exiguolysin 5 units/well
# Method: The inhibition of protease activity was screened using a 20 × 20 library of N-alpha dipeptide mercaptoamide inhibitors as previously described by Cathcart et al., and the half-maximal inhibitory constant (Ki) values were determined. In order to determine Michaelis–Menten constant, Km, of the fluorogenic substrate, exiguolysin (previously purified by HIC, final concentration 5 units/well) was added to wells of a 96-well black microtitre plate (Nunc); the volume was adjusted to 75 µL in assay buffer (25 mM Tris, 2.5 mM CaCl2, pH 7.0), and fluorogenic substrate (25 µL) was added at concentrations of 0, 1, 10, 25, 50, 100 and 200 µM. Time-dependent hydrolysis of the fluorogenic substrate was measured (excitation/emission […] nm) every 30 s for 30 min. The Km is determined using the Michealis–Menten equation, by plotting the rate of substrate hydrolysis against substrate concentration.
substance,measurement,value
"Mca-Lys-Pro-Leu-Gly-Leu-Dap-(Dnp)-Ala-Arg-NH2 (Mca-KPLGL-{Dap(Dnp)-Ala-Arg-NH2}) [fluorogenic substrate, fluorogenic matrix metalloprotease (MMP) substrate]",Km,14.2 µM
